# Tests used:
# [1] = tested on: acetylated histone H4 in U937 cells; assay: Immunohistochemistry (T25) of U937 cells treated with HDACi; assay type: cell-based, human; settings: 12 hours, 1 mM, T25 antibody
# Experimental: To evaluate the specificity of the T25 antibody in immunohistochemistry (IHC), the inventors performed a preliminary test in an established cell line (U937 cells). […] Untreated cells, or cells treated for 12 hours with VPA (1 mM), were either processed for Western blot analysis (FIG. 3A), or fixed in formalin and then processed for immunohistochemistry (FIG. 1B). […] The T25 antibody can therefore be used for the analysis of histone acetylation levels by western blot analysis and immunohistochemistry (IHC).
# [2] = Plasmatic VPA concentration in treated patients; assay type: in vivo, human; settings: 10 to 30 mg/kg/day
# Experimental: HDAC inhibitors are currently being tested for their clinical use in tumor patients (Marks et al., 2001, Nat Rev Cancer 1, 194-202). Therefore, the inventors evaluated the response to valproic acid, VPA (a HDAC inhibitor currently in clinical trials for several forms of cancer), in blood samples of patients subjected to VPA treatment. Peripheral blood was collected periodically before/at various times of VPA treatment (10 to 30 mg/kg/day; plasmatic VPA concentration: 0,75 mM), mononuclear cells were isolated by Ficoll analysis and then analyzed as described. […] The histone acetylation level measured in blood cells may serve as marker to evaluate the efficacy of HDAC inhibitor treatment of patients suffering from tumors, including solid tumors, to further orientate the treatment schedule.
# [3] = tested on: cells derived from "class B" primary human breast tumors; assay: Apoptosis of cultured primary breast tumor cells treated with HDAC inhibitors; assay type: cell-based; settings: cells from three class B tumors
# Experimental: (§1) To establish whether this classification may have additional correlations with tumor biology and potential influences on the choice of clinical therapeutic treatments, the sensitivity of tumor cells derived from “class A” or “class B” primary human breast tumors to various HDAC inhibitors was evaluated in vitro (FIG. 7-8). To investigate this further, cells derived from excision surgery of primary breast tumors were cultured (on which in parallel IHC using the T25 antibody was performed to establish the histone acetylation levels in vivo) following standard procedures (Elenbaas et al., 2001, Genes Dev 15, 50-65). After a few passages in culture (in the absence of fetal bovine serum, to eliminate contamination of fibroblasts), the cell population is greatly enriched in tumor cells. The bulk populations of cells derived from four “class A” and three “class B” tumors were then treated with VPA, or TSA (FIGS. 7-8). […] The immunohistochemical classification as described here, can therefore be used to predict the response of tumor cells to treatment with HDAC inhibitors and could thus be used for prognostic predictions whether a patient should be treated with such inhibitors.
# [4] = tested on: cells derived from "class A" (globally hypoacetylated) primary human breast tumors; assay: as above; assay type: cell-based; settings: cells from four class A tumors
# Experimental: as §1
# [5] = tested on: acetylated histone H3 and histone H4 in U937 cells; assay: Western blot of histone acetylation in U937 cells treated with HDACi; assay type: cell-based, human; settings: for levels of acetylated histone H3 and histone H4 by Western blot: treatment in vitro for 6-12 hours
# [6] = tested on: histone acetylation in peripheral blood mononuclear cells; assay: Flow cytometry of histone acetylation in blood mononuclear cells of patients under VPA treatment; assay type: in vivo, human; settings: 10 to 30 mg/kg/day
# Experimental: Histone acetylation analysis was performed according to the following procedure. Cells were fixed for 15 minutes in 1% formaldehyde in PBS. 1×10^6 cells/sample were washed with PBS+1% BSA and permeabilised with 200 μl of 0.1% Triton X100 in PBS for 10 min at room temperature (to allow for the antibody to reach acetylated nuclear proteins, such as histones). After washing with PBS+1% BSA pellets were incubated with 500 μl of 10% normal goat serum (NGS) in PBS for 20 min at 4° C. Histone acetylation levels were detected by incubation with T52 mouse monoclonal antibody (1 μg/ml in PBS+1% BSA). Detection was performed by incubation with a fluorescein isothiocyanate (FITC)-conjugated affinity pure F(ab′)2 fragment of goat anti-mouse IgG (Sigma) for 1 h at room temperature in the dark.
# [7] = tested on: control-transduced (MCSV) primary tumor-derived cells; assay: Sensitivity to HDAC inhibitor of transduced primary tumor-derived cell culture; assay type: cell-based; settings: high histone H4 acetylation
# [8] = tested on: histone acetylation in U-937 cells; assay: Flow cytometry of histone acetylation (T52 staining) in U937 cells; assay type: cell-based, human; settings: 10 ng/ml for 4 hrs, untreated cells 90
# Experimental: Human U-937 cells were grown in RPMI-1640 medium supplemented with 10% Fetal Bovine Serum in standard culture conditions.
# Exponentially growing U-937 cells were treated for 4 hrs with 10 ng/ml Trichostatin A (TSA, Sigma Aldrich). After the treatment cells were washed with cold phosphate buffer saline (PBS), counted and fixed in 1% formaldehyde in PBS for 15 minutes. Fixed cells were then washed, resuspended in PBS, and stocked at 4° C.
# Histone acetylation analysis was performed according to the following procedure. Cells were fixed for 15 minutes in 1% formaldehyde in PBS. 1×10^6 cells/sample were washed with PBS+1% BSA and permeabilised with 200 μl of 0.1% Triton X100 in PBS for 10 min at room temperature (to allow for the antibody to reach acetylated nuclear proteins, such as histones). After washing with PBS+1% BSA pellets were incubated with 500 μl of 10% normal goat serum (NGS) in PBS for 20 min at 4° C. Histone acetylation levels were detected by incubation with T52 mouse monoclonal antibody (1 μg/ml in PBS+1% BSA). […]
# Flow cytometry analysis was performed using a FACScan flow cytometer (Becton Dickinson), acquiring at least 10,000 events/sample. The instrument was equipped with a bandpass 530/30 nm optical filter for FITC fluorescence detection (FL1 channel) and a 650 nm longpass optical filter in front of the PI (FL3) channel detector. […]
# [9] = tested on: tumor cells transduced with HDAC/MTA constructs (HDAC-1, HDAC-2, MTA1); assay: Sensitivity to HDAC inhibitor of transduced primary tumor-derived cell culture; assay type: cell-based; settings: histone hypoacetylation
# Experimental: An aliquot of the cells was collected, and Western blot analysis (using antibodies directed against acetylated histone H4) was performed on protein extracts prepared from these cells, to verify that overexpression of either HDAC, or of MTA1, led to a decrease in histone acetylation levels of the tumor cells.
# T-cell lymphomas = settings: phase II; cited from earlier work
# [10] = tested on: stage III/IV non-small cell lung cancer; settings: phase II, monotherapy; cited from earlier work
compound,measurement,setting,value
"CCCC(CCC)C(=O)O [VPA, valproic acid]",acetylated histone H4 staining in immunohistochemistry,[1],increase in the intensity of staining and number of stained cell nuclei
same,plasmatic VPA concentration,[2],"0,75 mM"
same,apoptosis upon treatment with the HDAC inhibitors,[3],totally resistant
same,apoptosis upon treatment with the HDAC inhibitors,[4],showed apoptosis
same,levels of acetylated histone H3 and histone H4 by Western blot,[5],drastic increase
same,"Histone acetylation levels, increase",[6]; after 7-days of treatment (day 8),> 3 fold
same,Histone acetylation levels,[6]; day 28-35,further increased
"CC(/C=C/C(=O)NO)=C\[C@@H](C)C(=O)c1ccc(N(C)C)cc1 [TSA, Trichostatin A]",sensitivity to treatment (apoptosis),[7],resistant
same,"mean fluorescence value (FL1-H), T52 staining",[8],450
same,apoptosis upon treatment with the HDAC inhibitors,[3],totally resistant
same,apoptosis upon treatment with the HDAC inhibitors,[4],showed apoptosis
same,acetylated histones H3 and H4 bands in Western blot,[5]; detection with T52 antibody (FIG. 9),greatly increased
same,levels of acetylated histone H3 and histone H4 by Western blot,[5],drastic increase
same,apoptosis,[9],up to 50%
C/C=C1\NC(=O)[C@H]2CSSCC/C=C/[C@H](CC(=O)N[C@H](C(C)C)C(=O)N2)OC(=O)[C@H](C(C)C)NC1=O [depsipeptide],clinical outcome,T-cell lymphomas,used successfully
CCCC(=O)OCOC(=O)C(C)(C)C [Pivanex],clinical activity,[10],demonstrating activity

# Reference: patent US7858329B2, “Antibody tools for the diagnostic use in the medical therapy with inhibitors of histone deacetylases” (TopoTarget Germany AG, priority 2002, dated 2010)
